Reference: article PMC10504751, “Chalcone/1,3,4-Oxadiazole/Benzimidazole hybrids as novel anti-proliferative agents inducing apoptosis and inhibiting EGFR & BRAFV^600E” (BMC Chemistry, 2023)
Read-outs that look alike come from different tables or passages of the source.

Legend:
Experiment in all cases: NCI one-dose SRB anti-proliferative screen
Type in all cases: cell-based
NCI-H226 = conditions: Homo sapiens, read-out: Cell growth inhibition %
In short: (§1)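 Read-out: sulforhodamine B protein stain measured colorimetrically after exposure of the cells to test compound at 10 µM. This line formed one member of a 60-line panel spanning lung, leukaemia, melanoma, colon, renal, CNS, prostate, breast and ovarian origins.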

IGROV1 = conditions: Homo sapiens, IGROV-1, read-out: Cell growth inhibition %
In short: as §1

A549/ATCC = conditions: Homo sapiens, read-out: Cell growth inhibition %
In short: as §1

HT29 = conditions: Homo sapiens, HT-29, read-out: Cell growth inhibition %
In short: as §1

OVCAR-4 = conditions: Homo sapiens, read-out: Cell growth inhibition %
In short: as §1

DU-145 = conditions: Homo sapiens, read-out: Cell growth inhibition %
In short: as §1

UACC-257 = conditions: Homo sapiens, read-out: Cell growth inhibition %
In short: as §1

OVCAR-3 = conditions: Homo sapiens, read-out: Cell growth inhibition %
In short: as §1

ACHN = conditions: Homo sapiens, read-out: Cell growth inhibition %
In short: as §1

EKVX = conditions: Homo sapiens, read-out: Cell growth inhibition %
In short: as §1

SF-268 = conditions: Homo sapiens, read-out: Cell growth inhibition %
In short: as §1

LOX IMVI = conditions: Homo sapiens; for inhibition at 10 µM: read-out: Cell growth inhibition %
In short: as §1

U251 = conditions: Homo sapiens, U-251, read-out: Cell growth inhibition %
In short: as §1

TK-10 = conditions: Homo sapiens, read-out: Cell growth inhibition %
In short: as §1

786-0 = conditions: Homo sapiens, read-out: Cell growth inhibition %
In short: as §1

CCRF-CEM = conditions: Homo sapiens, read-out: Cell growth inhibition %
In short: as §1

MDA-MB-468 = conditions: Homo sapiens, read-out: Cell growth inhibition %
In short: as §1

UACC-62 = conditions: Homo sapiens, read-out: Cell growth inhibition %
In short: as §1

OVCAR-5 = conditions: Homo sapiens, read-out: Cell growth inhibition %
In short: as §1

HS 578T = conditions: Homo sapiens, read-out: Cell growth inhibition %
In short: as §1

NCI-H522 = conditions: Homo sapiens, read-out: Cell growth inhibition %
In short: as §1

NCI-H322M = conditions: Homo sapiens, read-out: Cell growth inhibition %
In short: as §1

SW-620 = conditions: Homo sapiens, read-out: Cell growth inhibition %
In short: as §1

OVCAR-8 = conditions: Homo sapiens, read-out: Cell growth inhibition %
In short: as §1

MCF7 = conditions: Homo sapiens, read-out: Cell growth inhibition %
In short: as §1

A498 = conditions: Homo sapiens, read-out: Cell growth inhibition %
In short: as §1

HCT-15 = conditions: Homo sapiens, read-out: Cell growth inhibition %
In short: as §1

KM12 = conditions: Homo sapiens, read-out: Cell growth inhibition %
In short: as §1

SF-539 = conditions: Homo sapiens, read-out: Cell growth inhibition %
In short: as §1

NCI-H23 = conditions: Homo sapiens, read-out: Cell growth inhibition %
In short: as §1

HCC-2998 = conditions: Homo sapiens, read-out: Cell growth inhibition %
In short: as §1

[1] = NCI-H226, Non-Small Cell Lung Cancer, NCI one dose
[2] = IGROV1, Ovarian Cancer, NCI one dose
[3] = A549/ATCC, Non-Small Cell Lung Cancer, NCI one dose
[4] = HT29, Colon cancer, NCI one dose
[5] = OVCAR-4, Ovarian Cancer, NCI one dose
[6] = DU-145, Prostate Cancer, NCI one dose
[7] = UACC-257, Melanoma, NCI one dose
[8] = OVCAR-3, Ovarian Cancer, NCI one dose
[9] = ACHN, Renal cancer, NCI one dose
[10] = EKVX, Non-Small Cell Lung Cancer, NCI one dose
[11] = SF-268, CNS Cancer, NCI one dose
[12] = TK-10, Renal cancer, NCI one dose
[13] = 786-0, Renal cancer, NCI one dose
[14] = CCRF-CEM, Leukemia, NCI one dose
[15] = MDA-MB-468, Breast cancer, NCI one dose
[16] = UACC-62, Melanoma, NCI one dose
[17] = OVCAR-5, Ovarian Cancer, NCI one dose
[18] = HS 578T, Breast cancer, NCI one dose
[19] = NCI-H522, Non-Small Cell Lung Cancer, NCI one dose
[20] = NCI-H322M, Non-Small Cell Lung Cancer, NCI one dose
[21] = SW-620, Colon cancer, NCI one dose
[22] = OVCAR-8, Ovarian Cancer, NCI one dose
[23] = MCF7, Breast cancer, NCI one dose
[24] = A498, Renal cancer, NCI one dose
[25] = HCT-15, Colon cancer, NCI one dose
[26] = KM12, Colon cancer, NCI one dose
[27] = SF-539, CNS Cancer, NCI one dose
[28] = NCI-H23, Non-Small Cell Lung Cancer, NCI one dose
[29] = HCC-2998, Colon cancer, NCI one dose

## COc1ccc(-c2nc3cc(-c4nnc(SCC(=O)Nc5ccc(C(=O)/C=C/c6ccccc6)cc5)o4)ccc3[nH]2)cc1OC [Compound 7p, 2-{5-[2-(3,4-Dimethoxyphenyl)-1 H-benzo[d]imidazol-5-yl]-1,3,4-oxadiazol-2-ylthio}-N-{4-[(E)-3-phenylacryloyl]phenyl}acetamide]
NCI-H226; NCI-H226 (Non-Small Cell Lung Cancer), NCI one dose 10 µM
  inhibition at 10 µM: 1.84%
IGROV1; IGROV1 (Ovarian Cancer), NCI one dose 10 µM
  inhibition at 10 µM: 3.63%
A549/ATCC; A549/ATCC (Non-Small Cell Lung Cancer), NCI one dose 10 µM
  inhibition at 10 µM: 0%
HT29; HT29 (Colon Cancer), NCI one dose 10 µM
  inhibition at 10 µM: 0%
OVCAR-4; OVCAR-4 (Ovarian Cancer), NCI one dose 10 µM
  inhibition at 10 µM: 0%
DU-145; DU-145 (Prostate Cancer), NCI one dose 10 µM
  inhibition at 10 µM: 0%
UACC-257; UACC-257 (Melanoma), NCI one dose 10 µM
  inhibition at 10 µM: 0%
OVCAR-3; OVCAR-3 (Ovarian Cancer), NCI one dose 10 µM
  inhibition at 10 µM: 0%
ACHN; ACHN (Renal Cancer), NCI one dose 10 µM
  inhibition at 10 µM: 3.66%
EKVX; EKVX (Non-Small Cell Lung Cancer), NCI one dose 10 µM
  inhibition at 10 µM: 0%
SF-268; SF-268 (CNS Cancer), NCI one dose 10 µM
  inhibition at 10 µM: 0%
LOX IMVI; LOX IMIV (Melanoma), NCI one dose 10 µM
  inhibition at 10 µM: 112%
U251; U251 (CNS Cancer), NCI one dose 10 µM
  inhibition at 10 µM: 6.84%
TK-10; TK-10 (Renal Cancer), NCI one dose 10 µM
  inhibition at 10 µM: 0%
786-0; 786-0 (Renal Cancer), NCI one dose 10 µM
  inhibition at 10 µM: 0.75%
CCRF-CEM; CCRF-CEM (Leukemia), NCI one dose 10 µM
  inhibition at 10 µM: 11.6%
MDA-MB-468; MDA-MB-468 (Breast Cancer), NCI one dose 10 µM
  inhibition at 10 µM: 0%
UACC-62; UACC-62 (Melanoma), NCI one dose 10 µM
  inhibition at 10 µM: 4.99%
OVCAR-5; OVCAR-5 (Ovarian Cancer), NCI one dose 10 µM
  inhibition at 10 µM: 0.55%
HS 578T; HS 578T (Breast Cancer), NCI one dose 10 µM
  inhibition at 10 µM: 3.94%
NCI-H522; NCI-H522 (Non-Small Cell Lung Cancer), NCI one dose 10 µM
  inhibition at 10 µM: 1.56%
NCI-H322M; NCI-H322M (Non-Small Cell Lung Cancer), NCI one dose 10 µM
  inhibition at 10 µM: 0%
SW-620; SW-620 (Colon Cancer), NCI one dose 10 µM
  inhibition at 10 µM: 0%
OVCAR-8; OVCAR-8 (Ovarian Cancer), NCI one dose 10 µM
  inhibition at 10 µM: 0%
MCF7; MCF7 (Breast Cancer), NCI one dose 10 µM
  inhibition at 10 µM: 21.7%
A498; A498 (Renal Cancer), NCI one dose 10 µM
  inhibition at 10 µM: 0%
HCT-15; HCT-15 (Colon Cancer), NCI one dose 10 µM
  inhibition at 10 µM: 8.17%
KM12; KM12 (Colon Cancer), NCI one dose 10 µM
  inhibition at 10 µM: 0.98%
SF-539; SF-539 (CNS Cancer), NCI one dose 10 µM
  inhibition at 10 µM: 16.4%
NCI-H23; NCI-H23 (Non-Small Cell Lung Cancer), NCI one dose 10 µM
  inhibition at 10 µM: 0.22%
HCC-2998; HCC-2998 (Colon Cancer), NCI one dose 10 µM
  inhibition at 10 µM: 0%

## COc1ccc(-c2nc3cc(-c4nnc(SCC(=O)Nc5ccc(C(=O)/C=C/c6ccc(OC)c(OC)c6)cc5)o4)ccc3[nH]2)cc1 [Compound 7n, 2-{5-[2-(4-Methoxyphenyl)-1 H-benzo[d]imidazol-5-yl]-1,3,4-oxadiazol-2-ylthio}-N-{4-[(E)-3-(3,4-dimethoxyphenyl)acryloyl]phenyl}acetamide]
NCI-H226; [1]
  inhibition at 10 µM: 3.76%
IGROV1; [2]
  inhibition at 10 µM: 12.3%
A549/ATCC; [3]
  inhibition at 10 µM: 3.19%
HT29; [4]
  inhibition at 10 µM: 0%
OVCAR-4; [5]
  inhibition at 10 µM: 13.2%
DU-145; [6]
  inhibition at 10 µM: 13.4%
UACC-257; [7]
  inhibition at 10 µM: 1.66%
OVCAR-3; [8]
  inhibition at 10 µM: 14.3%
ACHN; [9]
  inhibition at 10 µM: 10.7%
EKVX; [10]
  inhibition at 10 µM: 4.36%
SF-268; [11]
  inhibition at 10 µM: 0.44%
LOX IMVI; LOX IMVI (Melanoma), 10 µM one dose, read-out: Growth Percent
  activity at 10 µM: 44%
LOX IMVI; Melanoma, NCI one dose
  inhibition at 10 µM: 56.1%
U251; U251, CNS Cancer, NCI one dose
  inhibition at 10 µM: 25.3%
TK-10; [12]
  inhibition at 10 µM: 0%
786-0; [13]
  inhibition at 10 µM: 8.7%
CCRF-CEM; [14]
  inhibition at 10 µM: 38.8%
MDA-MB-468; [15]
  inhibition at 10 µM: 10.7%
UACC-62; [16]
  inhibition at 10 µM: 15.8%
OVCAR-5; [17]
  inhibition at 10 µM: 0%
HS 578T; [18]
  inhibition at 10 µM: 7.35%
NCI-H522; [19]
  inhibition at 10 µM: 24.6%
NCI-H322M; [20]
  inhibition at 10 µM: 5.07%
SW-620; [21]
  inhibition at 10 µM: 13.6%
OVCAR-8; [22]
  inhibition at 10 µM: 7.51%
MCF7; [23]
  inhibition at 10 µM: 55.5%
A498; [24]
  inhibition at 10 µM: 0%
HCT-15; [25]
  inhibition at 10 µM: 31.8%
KM12; [26]
  inhibition at 10 µM: 23.4%
SF-539; [27]
  inhibition at 10 µM: 13.3%
NCI-H23; [28]
  inhibition at 10 µM: 19.9%
HCC-2998; [29]
  inhibition at 10 µM: 0%

## O=C(CSc1nnc(-c2ccc3[nH]c(-c4ccccc4)nc3c2)o1)Nc1ccc(C(=O)/C=C/c2ccccc2)cc1 [Compound 7a, 2-{5-[2-Phenyl-1 H-benzo[d]imidazol-5-yl]-1,3,4-oxadiazol-2-ylthio}-N-{4-[(E)-3-phenylacryloyl]phenyl}acetamide]
NCI-H226; [1]
  inhibition at 10 µM: 0%
IGROV1; [2]
  inhibition at 10 µM: 4.17%
A549/ATCC; [3]
  inhibition at 10 µM: 0%
HT29; [4]
  inhibition at 10 µM: 0%
OVCAR-4; [5]
  inhibition at 10 µM: 0%
DU-145; [6]
  inhibition at 10 µM: 0%
UACC-257; [7]
  inhibition at 10 µM: 0%
OVCAR-3; [8]
  inhibition at 10 µM: 0%
ACHN; [9]
  inhibition at 10 µM: 0%
EKVX; [10]
  inhibition at 10 µM: 0%
SF-268; [11]
  inhibition at 10 µM: 0%
LOX IMVI; Melanoma, NCI one dose
  inhibition at 10 µM: 2.69%
U251; U251, CNS Cancer, NCI one dose
  inhibition at 10 µM: 1.83%
TK-10; [12]
  inhibition at 10 µM: 0%
786-0; [13]
  inhibition at 10 µM: 0%
CCRF-CEM; [14]
  inhibition at 10 µM: 0%
MDA-MB-468; [15]
  inhibition at 10 µM: 0%
UACC-62; [16]
  inhibition at 10 µM: 2.91%
OVCAR-5; [17]
  inhibition at 10 µM: 0%
HS 578T; [18]
  inhibition at 10 µM: 0%
NCI-H522; [19]
  inhibition at 10 µM: 6.57%
NCI-H322M; [20]
  inhibition at 10 µM: 0%
SW-620; [21]
  inhibition at 10 µM: 0%
OVCAR-8; [22]
  inhibition at 10 µM: 0.04%
MCF7; [23]
  inhibition at 10 µM: 12.4%
A498; [24]
  inhibition at 10 µM: 4.13%
HCT-15; [25]
  inhibition at 10 µM: 0%
KM12; [26]
  inhibition at 10 µM: 0%
SF-539; [27]
  inhibition at 10 µM: 3.15%
NCI-H23; [28]
  inhibition at 10 µM: 0%
HCC-2998; [29]
  inhibition at 10 µM: 0%
